From patent publication EP4737449A1 (Changchun Genescience Pharmaceutical Co., Ltd., priority 2023, dated 2025) come the findings set out here.

The assay addresses T1, p53-Y220C mutant protein (Homo sapiens, UniProt P04637, Y220C).
T1 construct: The recombinant Y220C p53 DBD protein with his-tag
The assay can be described thus: In vitro DNA binding activity assay (TR-FRET). It counts as biochemical. Conditions: concentration required to increase the binding activity of protein to DNA by 50%. Here is the method: The activity of the compound to modulate the binding of the p53-Y220C mutant protein to DNA was detected using TR-FREt (Time-Resolved Fluorescence Resonance Energy Transfer). The recombinant Y220C p53 DBD protein with his-tag and the DNA sequence with biotin label were prepared firstly. Donor Eu(Europium)-SA(Streptavidin) can be bound to the DNA sequence through biotin, receptor for his antibody attached to alphaphycocyanin(APC, allophycocyanin), and his antibody can be bound to the Y220C p53 DBD protein with his-tag. When exposed to an excitation light with a wavelength of 340 nm, the donor Eu(Europium)-SA(Streptavidin) can emit fluorescence with a wavelength of 615 nm. If the donor and the receptor are close to each other, the donor will transfer part of the energy to the receptor and produce fluorescence with a wavelength of 665 nm. […] If there is no interaction, only 615 nm fluorescence is produced. • 1) Experimental steps • a. Adding 4 µL of dilute compound solution to each well of a 384-well microplate; • a. Adding 4 µL of 4X P53 working solution to each well of the 384-well microplate; • c. Sealing the 384-well microplate and equilibrating the system at room temperature for 60 min; • d. Adding 4 µl of biotin DNA solution to the 384-well microplate; • e. Adding 4 µl of 4X test solution (MAb Anti-6His-Eu and streptavidin-d2) to each well of the 384-well microplate; • f. Incubating overnight in the dark; and • g. Reading data of 665 nm and 615 nm wavelengths on the BMG multifunctional microplate reader. • 2) Data analysis • a. Calculating the ratio for each well (Ratio665 nm/615 nm-Ratiobackground); • b. Calculating the activity percentage (%activity) as follows: C = (Ave_Ac−Ave_Ba)/(Ave_Dc−Ave_Bd) [formula] R data = (A−Ave_Ba−CD)/(D−Ave_Bd)*(Ave_Dc−Ave_Bd) [formula] % Activity = R data/Ave_VC*100 [formula] • A: Fluorescence intensity of the sample at 665 nm; D: Fluorescence intensity of the sample at 615 nm; • Ba: Background fluorescence intensity of the culture plate at 665 nm; Bd: Background fluorescence intensity of the culture plate at 615 nm; • Dc: Background fluorescence intensity of HIS-E at 615 nm; Ac: Background fluorescence intensity of streptavidin-d2 at 665 nm); and • c. Calculating SC150 and plotting dose-effect curve
Compared to the absence of the compound of the present invention, the activation percentage of binding of the p53 mutant protein to DNA in the presence of the compound of the present invention is expressed as SC150, which indicates the concentration of the compound required to increase the DNA binding activity of the p53 mutant protein by 50%. The SC150 is calculated using Prism™.
In general terms: Time-resolved FRET reads energy transfer from a long-lived donor to a nearby acceptor.

Molecules are shown by their SMILES.

`CN1CC[C@@H](Nc2cccc3c(CC(F)(F)F)c(C#CCNC(=O)c4cn(CC5CCCC5)nc4N)nn23)[C@@H](F)C1` [Compound 349]: the SC150 is listed as 12 nM. The same measure for `CN1CC[C@@H](Nc2cccc3c(CC(F)(F)F)c(C#CCNC(=O)c4cn(C5CC5)nc4N)nn23)[C@@H](F)C1` [Compound 350, 3-amino-N-[3-(7-{[(3S,4R)-3-fluoro-1-methylpiperidin-4-yl]amino}-3-(2,2,2-trifluoroethyl)pyrazolo[1,5-a]pyridin-2-yl)prop-2-yn-1-yl]-1-(cyclopropyl)-1H-pyrazole-4-carboxamide]: 13 nM. In turn, `CN1CC[C@@H](Nc2cccc3c(CC(F)(F)F)c(C#CCNC(=O)c4cnn(CCO)c4)nn23)[C@@H](F)C1` [Compound 310, N-[3-(7-{[(3S,4R)-3-fluoro-1-methylpiperidin-4-yl]amino}-3-(2,2,2-trifluoroethyl)pyrazolo[1,5-a]pyridin-2-yl)prop-2-yn-1-yl]-1-(2-hydroxyethyl)-1H-pyrazole-4-carboxamide] gave an SC150 of 11 nM.

As to `CN1CC[C@@H](Nc2cccc3c(CC(F)(F)F)c(C#CCNC(=O)c4cn(C)c(C(F)F)n4)nn23)[C@@H](F)C1` [Compound 309, 2-difluoromethyl-N-[3-(7-{[(3S,4R)-3-fluoro-1-methylpiperidin-4-yl]amino}-3-(2,2,2-trifluoroethyl)pyrazolo[1,5-a]pyridin-2-yl)prop-2-yn-1-yl]-1-methyl-1H-imidazole-4-carboxamide], the SC150 is on record as 74 nM. Under `CNc1c(C(=O)NCC#Cc2nn3c(N[C@@H]4CCN(C)C[C@@H]4F)cccc3c2CC(F)(F)F)cnn1C(C)(C)C` [Compound 307, 1-(tert-butyl)-N-[3-(7-{[(3S,4R)-3-fluoro-1-methylpiperidin-4-yl]amino}-3-(2,2,2-trifluoroethyl)pyrazolo [1,5-a]pyridin-2-yl)prop-2-yn-1-yl]-5-(methylamino)-1H-pyrazole-4-carboxamide] stands 32 nM; under `CN1CC[C@@H](Nc2cccc3c(CC(F)(F)F)c(C#CCNC(=O)c4cnn(C)c4F)nn23)[C@@H](F)C1` [Compound 327, 5-fluoro-N-[3-(7-{[(3S,4R)-3-fluoro-1-methylpiperidin-4-yl]amino}-3-(2,2,2-trifluoroethyl)pyrazolo[1,5-a]pyridin-2-yl)prop-2-yn-1-yl]-1-methyl-1H-pyrazole-4-carboxamide], 27 nM; under `Cc1c(C(=O)NCC#Cc2nn3c(N[C@@H]4CCN(C)C[C@@H]4F)cccc3c2CC(F)(F)F)cnn1C1CC1` [Compound 282, 1-cyclopropyl-N-[3-(7-{[(3S,4R)-3-fluoro-1-methylpiperidin-4-yl]amino}-3-(2,2,2-trifluoroethyl)pyrazolo[1,5-a]pyridin-2-yl)prop-2-yn-1-yl]-5-methyl-1H-pyrazole-4-carboxamide], 19 nM. The same measure for `CCn1cc(C(=O)NCC#Cc2nn3c(N[C@@H]4CCN(C)C[C@@H]4F)cccc3c2CC(F)(F)F)c(N)n1` [Compound 329, 3-amino-1-ethyl-N-(3-(7-{[(3S,4R)-3-fluoro-1-methylpiperidin-4-yl]amino}-3-(2,2,2-trifluoroethyl)pyrazolo[1,5-a]pyridin-2-yl)prop-2-yn-1-yl]-1H-pyrazole-4-carboxamide]: 9 nM; for `CC(C)c1cc(C(=O)NCC#Cc2nn3c(N[C@@H]4CCN(C)C[C@@H]4F)cccc3c2CC(F)(F)F)no1` [Compound 321, N-[3-(7-{[(3S,4R)-3-fluoro-1-methylpiperidin-4-yl]amino}-3-(2,2,2-trifluoroethyl)pyrazolo[1,5-a]pyridin-2-yl)prop-2-yn-1-yl]-5-isopropylisoxazole-3-carboxamide]: 99 nM. `CC(C1CC1)n1cc(C(=O)NCC#Cc2nn3c(N[C@@H]4CCN(C)C[C@@H]4F)cccc3c2CC(F)(F)F)cn1` (stereo partly drawn) [Compound 269, 1-(1-cyclopropylethyl)-N-[3-(7-{[(3S,4R)-3-fluoro-1-methylpiperidin-4-yl]amino}-3-(2,2,2-trifluoroethyl)pyrazolo[1,5-a]pyridin-2-yl)prop-2-yn-1-yl]-1H-pyrazole-4-carboxamide] registered an SC150 of 8 nM. The same measure for `CN1CC[C@@H](Nc2cccc3c(CC(F)(F)F)c(C#CCNC(=O)c4cn(C(C)(C)C)nn4)nn23)[C@@H](F)C1` [Compound 142, 1-tert-butyl-N-[3-(7-{[(3S,4R)-3-fluoro-1-methylpiperidin-4-yl]amino}-3-(2,2,2-trifluoroethyl)pyrazolo[1,5-a]pyridin-2-yl)prop-2-yn-1-yl]-1H-1,2,3-triazole-4-carboxamide]: 29 nM; for `CN1CC[C@@H](Nc2cccc3c(CC(F)(F)F)c(C#CCNC(=O)c4nnn(C(C)(C)C)n4)nn23)[C@@H](F)C1` [Compound 145, 2-tert-butyl-N-[3-(7-{[(3S,4R)-3-fluoro-1-methylpiperidin-4-yl]amino}-3-(2,2,2-trifluoroethyl)pyrazolo[1,5-a]pyridin-2-yl)prop-2-yn-1-yl]-2H-tetrazole-5-carboxamide]: 50 nM; for `CCn1cc(C(=O)NCC#Cc2nn3c(N[C@@H]4CCN(C)C[C@@H]4F)cccc3c2CC(F)(F)F)c(Cl)n1` [Compound 344]: 56 nM. Compound `CN1CC[C@@H](Nc2cccc3c(CC(F)(F)F)c(C#CCNC(=O)c4cnn(C(C)(C)C#N)c4)nn23)[C@@H](F)C1` [Compound 248, 1-(1-cyano-1-methylethyl)-N-[3-(7-{[(3S,4R)-3-fluoro-1-methylpiperidin-4-yl]amino}-3-(2,2,2-trifluoroethyl)pyrazolo[1,5-a]pyridin-2-yl)prop-2-yn-1-yl]-1H-pyrazole-4-carboxamide] returned an SC150 of 14 nM. With `Cc1nn(C(C)(C)C)c(N)c1C(=O)NCC#Cc1nn2c(N[C@@H]3CCN(C)C[C@@H]3F)cccc2c1CC(F)(F)F` [Compound 288, 5-amino-1-tert-butyl-N-[3-(7-{[(3S,4R)-3-fluoro-1-methylpiperidin-4-yl]amino}-3-(2,2,2-trifluoroethyl)pyrazolo[1,5-a]pyridin-2-yl)prop-2-yn-1-yl]-3-methyl-1H-pyrazole-4-carboxamide], the SC150 turned out to be 69 nM.

Turning to `CC(C)c1cc(C(=O)NCC#Cc2nn3c(N[C@@H]4CCN(C)C[C@@H]4F)cccc3c2CC(F)(F)F)on1` [Compound 323, N-[3-(7-{[(3S,4R)-3-fluoro-1-methylpiperidin-4-yl]amino}-3-(2,2,2-trifluoroethyl)pyrazolo[1,5-a]pyridin-2-yl)prop-2-yn-1-yl]-3-isopropylisoxazole-5-carboxamide], the SC150 was 57 nM. Turning to `CN1CC[C@@H](Nc2cccc3c(CC(F)(F)F)c(C#CCNC(=O)c4cccc(C(C)(C)O)c4)nn23)[C@@H](F)C1` [Compound 334, N-[3-(7-{[(3S,4R)-3-fluoro-1-methylpiperidin-4-yl]amino}-3-(2,2,2-trifluoroethyl)pyrazolo[1,5-a]pyridin-2-yl)prop-2-yn-1-yl)-3-(2-hydroxyprop-2-yl)benzamide], the SC150 worked out at 33 nM. `CN1CC[C@@H](Nc2cccc3c(CC(F)(F)F)c(C#CCNC(=O)c4cnn(CC5CCCC5)c4N)nn23)[C@@H](F)C1` [Compound 285] returned an SC150 of 28 nM.

`CN1CCC(Nc2cccc3c(CC(F)(F)F)c(C#CCNC(=O)c4cnn(C(C)(C)C)c4N)nn23)CC1` [Compound 370, 5-amino-1-tert-butyl-N-(3-(7-[(1-methylpiperidin-4-yl)amino]-3-(2,2,2-trifluoroethyl)pyrazolo[1,5-a]pyridin-2-yl)prop-2-yn-1-yl)-1H-pyrazole-4-carboxamide] displayed an SC150 of 9 nM. Consider `CC(C)Cn1ncc(C(=O)NCC#Cc2nn3c(N[C@@H]4CCN(C)C[C@@H]4F)cccc3c2CC(F)(F)F)c1N` [Compound 286, 5-amino-N-[3-(7-{[(3S,4R)-3-fluoro-1-methylpiperidin-4-yl]amino}-3-(2,2,2-trifluoroethyl)pyrazolo[1,5-a]pyridin-2-yl)prop-2-yn-1-yl]-1-isobutyl-1H-pyrazole-4-carboxamide], for which the SC150 turned out to be 8 nM. The same measure for `CN1CC[C@@H](Nc2cccc3c(CC(F)(F)F)c(C#CCNC(=O)C4CC45CC5)nn23)[C@@H](F)C1` (stereo partly drawn) [Compound 241, N-[3-(7-{[(3S,4R)-3-fluoro-1-methylpiperidin-4-yl]amino}-3-(2,2,2-trifluoroethyl)pyrazolo[1,5-a]pyridin-2-yl)prop-2-yn-1-yl]spiro[2.2]pentane-1-carboxamide]: 82 nM.
